ChEMBL document CHEMBL5036349, “Development of potent dual PDK1/AurA kinase inhibitors for cancer therapy: Lead-optimization, structural insights, and ADME-Tox profile” (Eur J Med Chem, 2021)
Blank lines part the entries; values can stand above or below the compound they belong to.

Key:
Aurora kinase A = biological target: T1, Aurora kinase A (Homo sapiens, UniProt O14965); assay: Inhibition of recombinant full length human His-tagged AURA expressed in Baculovirus expression system in presence of ATP measured by […]
T1 sequence (O14965 whole entry): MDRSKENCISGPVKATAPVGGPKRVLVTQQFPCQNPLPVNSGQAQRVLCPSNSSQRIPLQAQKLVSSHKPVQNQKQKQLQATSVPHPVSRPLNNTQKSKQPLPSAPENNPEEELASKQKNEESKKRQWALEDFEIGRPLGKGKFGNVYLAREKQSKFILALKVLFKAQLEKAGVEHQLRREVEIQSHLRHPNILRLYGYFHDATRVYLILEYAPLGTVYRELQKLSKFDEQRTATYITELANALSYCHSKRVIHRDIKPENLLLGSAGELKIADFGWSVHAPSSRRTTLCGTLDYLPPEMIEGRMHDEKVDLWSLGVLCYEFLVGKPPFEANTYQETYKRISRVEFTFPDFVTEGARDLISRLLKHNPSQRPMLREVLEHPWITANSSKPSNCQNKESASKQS

[1] = biological target: 3-phosphoinositide-dependent protein kinase 1 (Homo sapiens) (UniProt O15530); assay: Inhibition of recombinant full length human His-tagged PDK1 expressed in Baculovirus expression system in presence of ATP measured by […]
HEK293 = assay: Cytotoxicity against HEK293 cells at 10 uM measured after 24 to 48 hrs by Cell-titer glo assay relative to control; type: cell-based; settings: human, hek293, 10 µM, time 24-48 hrs
[2] = Cytotoxicity against hTERT cells at 10 uM measured after 24 to 48 hrs by Cell-titer glo assay relative to control; type: cell-based; settings: human, time 24-48 hrs
[3] = biological target: 3',5'-cyclic-AMP phosphodiesterase 4C (Homo sapiens) (UniProt Q08493); assay: Inhibition of PDE4C1 (unknown origin) at 10 uM incubated for 60 mins followed by addition of binding agent and measured after 20 mins by Fluorescence Polarization assay relative to control; settings: time 80.0 min
Chain of 3',5'-cyclic-AMP phosphodiesterase 4C (Homo sapiens) (Q08493 whole entry): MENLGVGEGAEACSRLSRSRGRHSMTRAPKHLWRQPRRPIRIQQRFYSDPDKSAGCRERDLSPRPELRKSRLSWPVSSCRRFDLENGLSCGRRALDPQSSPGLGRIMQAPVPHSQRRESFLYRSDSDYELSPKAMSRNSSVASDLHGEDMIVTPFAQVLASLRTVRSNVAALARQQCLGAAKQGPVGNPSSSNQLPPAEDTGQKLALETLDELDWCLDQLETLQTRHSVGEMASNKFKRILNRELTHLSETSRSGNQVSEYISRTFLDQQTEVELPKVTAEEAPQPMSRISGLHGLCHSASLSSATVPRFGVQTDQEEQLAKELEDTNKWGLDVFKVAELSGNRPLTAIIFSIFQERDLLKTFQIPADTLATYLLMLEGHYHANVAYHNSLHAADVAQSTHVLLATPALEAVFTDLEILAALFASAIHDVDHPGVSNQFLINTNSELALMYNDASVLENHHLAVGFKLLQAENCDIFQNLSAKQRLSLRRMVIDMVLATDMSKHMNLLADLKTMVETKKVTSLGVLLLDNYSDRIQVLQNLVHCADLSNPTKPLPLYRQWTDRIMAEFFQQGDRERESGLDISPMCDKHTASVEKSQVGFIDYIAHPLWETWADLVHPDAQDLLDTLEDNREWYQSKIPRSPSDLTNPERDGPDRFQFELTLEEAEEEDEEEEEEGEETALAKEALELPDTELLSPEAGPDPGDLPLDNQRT

[4] = biological target: T2, NAD-dependent protein deacetylase sirtuin-7 (Homo sapiens) (UniProt Q9NRC8); assay: Inhibition of human recombinant SIRT7 at 10 uM incubated for 20 mins followed by mixing and measure after 30 mins by Luminescence assay relative to control; settings: time 50.0 min
T2 sequence (whole entry): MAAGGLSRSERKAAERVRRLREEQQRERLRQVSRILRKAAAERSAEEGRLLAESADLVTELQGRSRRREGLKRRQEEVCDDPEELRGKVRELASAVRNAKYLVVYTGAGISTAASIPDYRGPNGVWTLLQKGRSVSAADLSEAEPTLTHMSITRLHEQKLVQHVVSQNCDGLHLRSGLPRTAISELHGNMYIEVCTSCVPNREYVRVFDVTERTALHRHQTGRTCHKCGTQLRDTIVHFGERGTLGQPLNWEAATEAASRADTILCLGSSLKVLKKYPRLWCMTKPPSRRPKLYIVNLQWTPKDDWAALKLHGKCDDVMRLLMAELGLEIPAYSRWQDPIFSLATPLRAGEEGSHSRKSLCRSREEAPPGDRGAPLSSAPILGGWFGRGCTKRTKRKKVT

[5] = biological target: Aurora kinase B (Homo sapiens) (UniProt Q96GD4); assay: Inhibition of Aurora B kinase (unknown origin) at 10 uM in presence of ATP incubated for 30 min followed by addition of kinase glo-reagent measured after 20 mins by Luminescence based plate reader assay relative to control; settings: time 50.0 min
Chain of Aurora kinase B (Homo sapiens) (Q96GD4 whole entry): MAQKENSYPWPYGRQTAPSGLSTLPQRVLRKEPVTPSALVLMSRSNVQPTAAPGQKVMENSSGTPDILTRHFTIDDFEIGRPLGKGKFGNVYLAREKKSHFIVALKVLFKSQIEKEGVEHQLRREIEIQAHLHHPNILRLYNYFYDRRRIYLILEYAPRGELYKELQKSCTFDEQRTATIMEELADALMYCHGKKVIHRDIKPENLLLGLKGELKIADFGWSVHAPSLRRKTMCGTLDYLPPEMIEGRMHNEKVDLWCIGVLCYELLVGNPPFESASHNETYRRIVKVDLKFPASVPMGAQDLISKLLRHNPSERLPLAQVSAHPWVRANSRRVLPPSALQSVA

[6] = biological target: {'v': 'hERG (KCNH2)', 'o': 'p', 'q': 'Inhibition of human ERG at 10 uM'} (Homo sapiens, UniProt Q12809); assay: Inhibition of human ERG at 10 uM relative to control
Chain of {'v': 'hERG (KCNH2)', 'o': 'p', 'q': 'Inhibition of human ERG at 10 uM'} (Q12809 whole entry): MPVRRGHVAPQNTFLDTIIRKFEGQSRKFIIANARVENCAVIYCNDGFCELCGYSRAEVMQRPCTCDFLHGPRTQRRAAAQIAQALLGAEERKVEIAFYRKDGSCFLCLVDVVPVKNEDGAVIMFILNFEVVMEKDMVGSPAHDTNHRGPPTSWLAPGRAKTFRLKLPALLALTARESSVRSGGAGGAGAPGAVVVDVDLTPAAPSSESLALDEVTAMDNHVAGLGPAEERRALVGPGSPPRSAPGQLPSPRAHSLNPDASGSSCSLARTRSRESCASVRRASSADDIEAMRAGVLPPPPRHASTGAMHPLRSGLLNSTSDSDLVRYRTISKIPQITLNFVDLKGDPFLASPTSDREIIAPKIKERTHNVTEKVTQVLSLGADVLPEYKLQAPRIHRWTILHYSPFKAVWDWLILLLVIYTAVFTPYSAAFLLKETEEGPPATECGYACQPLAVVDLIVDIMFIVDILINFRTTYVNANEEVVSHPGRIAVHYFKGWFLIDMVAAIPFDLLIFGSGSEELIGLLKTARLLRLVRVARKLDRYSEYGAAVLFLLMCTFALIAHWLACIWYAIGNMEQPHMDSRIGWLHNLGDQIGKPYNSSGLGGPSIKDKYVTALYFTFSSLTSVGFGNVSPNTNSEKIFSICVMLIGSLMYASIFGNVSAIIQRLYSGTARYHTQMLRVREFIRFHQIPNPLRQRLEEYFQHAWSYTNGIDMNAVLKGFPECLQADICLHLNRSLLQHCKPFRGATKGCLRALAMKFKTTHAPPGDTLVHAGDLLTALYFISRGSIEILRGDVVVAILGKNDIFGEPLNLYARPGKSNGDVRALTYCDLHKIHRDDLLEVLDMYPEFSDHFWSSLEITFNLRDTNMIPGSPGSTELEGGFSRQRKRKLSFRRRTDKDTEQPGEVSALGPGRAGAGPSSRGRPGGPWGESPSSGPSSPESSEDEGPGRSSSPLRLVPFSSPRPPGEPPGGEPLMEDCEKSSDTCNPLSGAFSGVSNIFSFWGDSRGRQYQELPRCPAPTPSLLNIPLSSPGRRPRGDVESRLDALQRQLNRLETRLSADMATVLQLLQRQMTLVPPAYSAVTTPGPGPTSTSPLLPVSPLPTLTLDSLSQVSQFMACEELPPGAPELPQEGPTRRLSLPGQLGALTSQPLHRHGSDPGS

[7] = biological target: Histone deacetylase 4 (Homo sapiens) (UniProt P56524); assay: Inhibition on human recombinant HDAC4 at 10 uM measured after 20 min by luminescence glo assay
Chain of Histone deacetylase 4 (Homo sapiens) (P56524 whole entry): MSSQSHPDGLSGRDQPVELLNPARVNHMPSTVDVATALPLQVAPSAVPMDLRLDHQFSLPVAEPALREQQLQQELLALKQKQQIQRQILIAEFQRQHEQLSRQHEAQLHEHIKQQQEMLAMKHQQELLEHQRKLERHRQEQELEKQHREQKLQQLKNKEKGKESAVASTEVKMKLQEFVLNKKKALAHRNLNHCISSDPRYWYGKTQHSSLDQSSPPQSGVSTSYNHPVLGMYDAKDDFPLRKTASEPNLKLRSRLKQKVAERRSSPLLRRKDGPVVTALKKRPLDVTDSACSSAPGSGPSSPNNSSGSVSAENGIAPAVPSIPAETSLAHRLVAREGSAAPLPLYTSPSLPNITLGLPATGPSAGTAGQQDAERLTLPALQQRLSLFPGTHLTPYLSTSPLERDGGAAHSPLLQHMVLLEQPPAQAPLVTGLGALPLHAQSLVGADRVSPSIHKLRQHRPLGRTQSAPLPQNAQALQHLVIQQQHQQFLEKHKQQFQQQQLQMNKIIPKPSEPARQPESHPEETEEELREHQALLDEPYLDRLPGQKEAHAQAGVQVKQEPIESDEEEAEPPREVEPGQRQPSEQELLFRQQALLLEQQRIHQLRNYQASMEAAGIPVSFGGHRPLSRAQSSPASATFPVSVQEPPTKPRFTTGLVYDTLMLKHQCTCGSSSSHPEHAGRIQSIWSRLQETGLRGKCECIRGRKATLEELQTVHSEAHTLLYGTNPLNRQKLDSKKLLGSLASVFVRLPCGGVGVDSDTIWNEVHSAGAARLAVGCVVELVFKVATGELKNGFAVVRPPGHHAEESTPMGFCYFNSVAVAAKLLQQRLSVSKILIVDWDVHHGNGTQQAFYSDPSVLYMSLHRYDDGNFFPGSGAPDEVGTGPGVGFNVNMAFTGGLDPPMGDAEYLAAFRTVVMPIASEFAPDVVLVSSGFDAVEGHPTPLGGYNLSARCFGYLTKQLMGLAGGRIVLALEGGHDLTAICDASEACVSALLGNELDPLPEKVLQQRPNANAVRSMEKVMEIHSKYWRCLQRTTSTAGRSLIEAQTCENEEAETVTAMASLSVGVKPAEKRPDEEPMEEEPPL

[8] = biological target: T3, Protein deacetylase HDAC6 (Homo sapiens) (UniProt Q9UBN7); assay: Inhibition on human recombinant HDAC6 at 10 uM measured after 20 min by luminescence glo assay
T3 sequence (whole entry): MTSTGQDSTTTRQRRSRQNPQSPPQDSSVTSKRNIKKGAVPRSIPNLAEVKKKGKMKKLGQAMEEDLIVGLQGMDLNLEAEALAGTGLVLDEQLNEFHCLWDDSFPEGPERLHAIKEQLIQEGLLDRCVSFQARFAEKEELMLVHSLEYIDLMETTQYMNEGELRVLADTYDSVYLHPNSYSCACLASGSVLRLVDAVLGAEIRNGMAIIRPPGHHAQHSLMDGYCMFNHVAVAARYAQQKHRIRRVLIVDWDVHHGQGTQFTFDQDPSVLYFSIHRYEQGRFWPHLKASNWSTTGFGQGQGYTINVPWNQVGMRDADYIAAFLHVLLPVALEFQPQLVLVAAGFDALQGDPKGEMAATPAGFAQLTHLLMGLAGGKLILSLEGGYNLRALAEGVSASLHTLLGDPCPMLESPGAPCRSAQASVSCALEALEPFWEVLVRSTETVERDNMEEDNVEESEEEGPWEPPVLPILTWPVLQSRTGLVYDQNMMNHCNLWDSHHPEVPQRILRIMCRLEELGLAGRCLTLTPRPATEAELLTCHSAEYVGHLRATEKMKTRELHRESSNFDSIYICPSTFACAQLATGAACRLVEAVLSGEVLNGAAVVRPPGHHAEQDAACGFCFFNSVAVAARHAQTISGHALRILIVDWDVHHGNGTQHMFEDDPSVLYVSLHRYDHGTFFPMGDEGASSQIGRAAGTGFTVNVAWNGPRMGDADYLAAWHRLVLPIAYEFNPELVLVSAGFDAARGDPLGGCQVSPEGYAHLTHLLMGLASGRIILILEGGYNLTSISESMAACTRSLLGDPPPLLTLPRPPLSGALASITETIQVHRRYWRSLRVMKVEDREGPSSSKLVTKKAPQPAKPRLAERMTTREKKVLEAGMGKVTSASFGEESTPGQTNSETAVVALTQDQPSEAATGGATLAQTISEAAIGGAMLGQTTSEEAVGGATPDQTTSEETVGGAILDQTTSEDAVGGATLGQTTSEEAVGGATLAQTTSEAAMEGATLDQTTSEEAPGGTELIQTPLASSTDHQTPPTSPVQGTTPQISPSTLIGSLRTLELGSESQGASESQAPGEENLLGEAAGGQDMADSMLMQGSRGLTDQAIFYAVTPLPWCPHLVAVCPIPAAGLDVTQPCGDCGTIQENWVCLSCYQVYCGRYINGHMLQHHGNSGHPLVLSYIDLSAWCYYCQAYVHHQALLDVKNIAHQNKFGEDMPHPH

[9] = biological target: T4, Histone deacetylase 8 (Homo sapiens) (UniProt Q9BY41); assay: Inhibition on human recombinant HDAC8 at 10 uM measured after 20 min by luminescence glo assay
T4 sequence (whole entry): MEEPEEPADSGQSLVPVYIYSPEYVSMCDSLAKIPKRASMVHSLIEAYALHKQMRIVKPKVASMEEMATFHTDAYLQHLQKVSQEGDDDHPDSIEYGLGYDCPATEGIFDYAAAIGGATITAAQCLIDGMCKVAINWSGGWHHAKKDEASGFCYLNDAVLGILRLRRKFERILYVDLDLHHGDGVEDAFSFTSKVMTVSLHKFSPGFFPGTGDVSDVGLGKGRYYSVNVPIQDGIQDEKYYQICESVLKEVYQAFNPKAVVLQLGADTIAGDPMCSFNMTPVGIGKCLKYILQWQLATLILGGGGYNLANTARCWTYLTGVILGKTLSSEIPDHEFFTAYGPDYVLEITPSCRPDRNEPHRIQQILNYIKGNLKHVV

[10] = biological target: Histone deacetylase 9 (Homo sapiens) (UniProt Q9UKV0); assay: Inhibition on human recombinant HDAC9 at 10 uM measured after 20 min by luminescence glo assay
Chain of Histone deacetylase 9 (Homo sapiens) (Q9UKV0 whole entry): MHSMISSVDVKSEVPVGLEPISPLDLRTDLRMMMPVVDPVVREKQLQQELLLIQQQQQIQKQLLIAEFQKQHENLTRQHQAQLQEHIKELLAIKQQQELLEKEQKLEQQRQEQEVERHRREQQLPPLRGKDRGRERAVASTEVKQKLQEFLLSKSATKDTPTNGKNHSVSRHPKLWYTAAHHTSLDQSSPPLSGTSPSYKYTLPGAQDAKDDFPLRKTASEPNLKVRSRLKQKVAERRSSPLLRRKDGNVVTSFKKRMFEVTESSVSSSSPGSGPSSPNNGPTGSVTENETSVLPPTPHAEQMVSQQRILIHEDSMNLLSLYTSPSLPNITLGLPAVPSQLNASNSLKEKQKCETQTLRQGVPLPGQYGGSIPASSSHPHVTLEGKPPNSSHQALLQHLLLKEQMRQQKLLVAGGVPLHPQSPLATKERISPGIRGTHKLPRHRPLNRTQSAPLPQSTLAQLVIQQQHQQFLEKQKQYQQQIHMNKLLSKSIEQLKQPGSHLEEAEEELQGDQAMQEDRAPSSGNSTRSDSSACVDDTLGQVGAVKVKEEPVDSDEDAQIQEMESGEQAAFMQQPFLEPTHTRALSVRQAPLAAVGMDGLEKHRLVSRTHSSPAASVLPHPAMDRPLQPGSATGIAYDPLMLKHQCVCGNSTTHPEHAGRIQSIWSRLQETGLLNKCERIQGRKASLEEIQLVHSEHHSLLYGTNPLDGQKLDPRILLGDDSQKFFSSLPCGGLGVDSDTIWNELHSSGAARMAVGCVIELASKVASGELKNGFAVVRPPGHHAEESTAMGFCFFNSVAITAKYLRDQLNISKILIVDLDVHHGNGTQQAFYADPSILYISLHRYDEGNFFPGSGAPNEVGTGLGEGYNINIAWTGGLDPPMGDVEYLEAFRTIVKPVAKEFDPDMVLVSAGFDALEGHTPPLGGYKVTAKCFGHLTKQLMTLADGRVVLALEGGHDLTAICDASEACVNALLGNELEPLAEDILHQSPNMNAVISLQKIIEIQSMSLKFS

NCI-H69 [11] = assay: Cytotoxicity against human NCI-H69 cells at 30 uM assessed as cell proliferation rate measured after 72 hrs by MTT assay relative to control; type: functional
MCF7 = assay: Cytotoxicity against human MCF7 cells measured after 72 hrs by MTT assay; type: functional, cell-based; settings: MCF7, 72 h
CAKI-1 = assay: Cytotoxicity against human CAKI-1 cells measured after 72 hrs by MTT assay; type: functional, cell-based; settings: CAKI-1, 72 h
786-0 = assay: Cytotoxicity against human 786-0 cells measured after 72 hrs by MTT assay; type: functional, cell-based; settings: 786-0, 72 h
IGROV-1 = assay: Cytotoxicity against human IGROV-1 cells measured after 72 hrs by MTT assay; type: functional, cell-based; settings: IGROV-1, 72 h
PC-3 = assay: Cytotoxicity against human PC-3 cells measured after 72 hrs by MTT assay; type: functional, cell-based; settings: PC-3, 72 h
HCT-116 = assay: Cytotoxicity against human HCT-116 cells measured after 72 hrs by MTT assay; type: functional, cell-based; settings: HCT-116, 72 h
NCI-H69 [12] = assay: Cytotoxicity against human NCI-H69 cells measured after 72 hrs by MTT assay; type: functional, cell-based; settings: NCI-H69, 72 h
NCI-H82 = assay: Cytotoxicity against human NCI-H82 cells measured after 72 hrs by MTT assay; type: functional, cell-based; settings: NCI-H82, 72 h
Rec1 = assay: Cytotoxicity against human REC1 cells measured after 72 hrs by MTT assay; type: functional, cell-based; settings: Rec1, 72 h
TC-32 [13] = assay: Cytotoxicity against human TC-32 cells measured after 72 hrs by MTT assay; type: functional, cell-based; settings: TC-32, 72 h
SK-N-MC = assay: Cytotoxicity against human SK-N-MC cells measured after 72 hrs by MTT assay; type: functional, cell-based
[14] = Cytotoxicity against human 6647 cells measured after 72 hrs by MTT assay; type: functional, cell-based; settings: Homo sapiens, 6647, 72 h
[15] = Cytotoxicity against human TC71 cells measured after 72 hrs by MTT assay; type: functional, cell-based; settings: TC-71, 72 h
A673 = assay: Cytotoxicity against human A673 cells measured after 72 hrs by MTT assay; type: functional, cell-based; settings: A673, 72 h
TC-32 [16] = assay: Cytotoxicity against human TC-32 cells at 30 uM assessed as cell proliferation rate measured after 72 hrs by MTT assay relative to control; type: functional

SMILES: O=C(CCNC(=O)c1cccn(Cc2ccc(F)c(F)c2)c1=O)Nc1ccc2c(c1)C(=Cc1cccs1)C(=O)N2
IC50 (Aurora kinase A): Not Active

IC50 (Aurora kinase A): Not Active
IC50 [1]: Not Active
SMILES: O=C(CCNC(=O)c1cccn(Cc2ccc(F)c(F)c2)c1=O)Nc1ccc2c(c1)/C(=C\c1ccc(F)cc1)C(=O)N2

inhibition [3]: < 30%
inhibition [4]: < 30%
inhibition [5]: < 20%
inhibition [7]: < 30%
inhibition [8]: < 30%
inhibition [9]: < 30%
inhibition [10]: < 30%
SMILES: O=C(CCCNC(=O)c1cccn(Cc2ccc(F)c(F)c2)c1=O)Nc1ccc2c(c1)/C(=C/c1cnc[nH]1)C(=O)N2
Activity (HEK293): < 25%
Activity [2]: < 25%
inhibition at 10 µM [6]: 53%

IC50 (Aurora kinase A): Not Active
IC50 [1]: Not Active
SMILES: O=C1Nc2ccc(NC(=O)c3cccc(NC(=O)c4cccn(Cc5ccc(F)c(F)c5)c4=O)c3)cc2C1=Cc1cccs1

SMILES: O=C(CCNC(=O)c1cccn(Cc2ccc(F)c(F)c2)c1=O)Nc1ccc2c(c1)/C(=C/c1ncc[nH]1)C(=O)N2
IC50 (Aurora kinase A): Not Active

IC50 (Aurora kinase A; read-out: IC50): > 10 µM
inhibition [3]: < 30%
inhibition [4]: < 30%
inhibition [5]: < 20%
inhibition [7]: < 30%
inhibition [8]: < 30%
inhibition [9]: < 30%
inhibition [10]: < 30%
SMILES: O=C1Nc2ccc(NC(=O)c3cccc(NC(=O)c4cccn(Cc5ccc(F)c(F)c5)c4=O)c3)cc2/C1=C/c1cnc[nH]1
Activity (HEK293): < 25%
Activity [2]: < 25%

IC50 (Aurora kinase A): Not Active
IC50 [1]: Not Active
SMILES: CN1CCN(CC(=O)c2c[nH]c3ccc(NC(=O)[C@H](NC(=O)c4cccn(Cc5ccc(F)c(F)c5)c4=O)c4ccccc4)cc23)CC1

SMILES: O=C(N[C@@H](COc1ccc2[nH]c(=O)[nH]c2c1)c1ccccc1)c1cccn(Cc2ccc(F)c(F)c2)c1=O
Emax at 30 µM (NCI-H69 [11]): 80%
IC50 (MCF7): > 30 µM
IC50 (CAKI-1): > 30 µM
IC50 (786-0): > 30 µM
IC50 (IGROV-1): > 30 µM
IC50 (PC-3): > 30 µM
IC50 (HCT-116): > 30 µM
IC50 (NCI-H69 [12]): 13.9 µM
IC50 (NCI-H82): > 30 µM
IC50 (Rec1): > 30 µM
IC50 (TC-32 [13]): 13.9 µM
IC50 (SK-N-MC): > 30 µM
IC50 [14]: > 30 µM
IC50 [15]: > 30 µM
IC50 (A673): > 30 µM
Emax at 30 µM (TC-32 [16]): 80%

IC50 (Aurora kinase A): Not Active
IC50 [1]: Not Active
SMILES: CCN(C)CC(=O)c1c[nH]c2ccc(NC(=O)[C@H](NC(=O)c3cccn(Cc4ccc(F)c(F)c4)c3=O)c3ccccc3)cc12

IC50 (Aurora kinase A; read-out: IC50): > 10 µM
inhibition [3]: < 30%
inhibition [4]: < 30%
inhibition [5]: < 20%
inhibition [7]: < 30%
inhibition [8]: < 30%
inhibition [9]: < 30%
inhibition [10]: < 30%
SMILES: Cc1c(Br)cc(C(=O)NCC(=O)Nc2ccc3c(c2)/C(=C/c2cnc[nH]2)C(=O)N3)c(=O)n1Cc1ccc(F)c(F)c1
Activity (HEK293): < 25%
Activity [2]: < 25%

IC50 (Aurora kinase A): Not Active
SMILES: O=C(CCCNC(=O)c1cccn(Cc2ccc(F)c(F)c2)c1=O)Nc1ccc2c(c1)C(=Cc1cccs1)C(=O)N2
